PubChem BioAssay (NCI)
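96-well plates; 48 h exposure; 5 concentrations. Endpoints by linear interpolation between flanking doses. Not reached: highest tested concentration assigned. GI50 is the concentration that inhibits growth by half. The concentration for full growth arrest is given as TGI.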

Legend:
Experiment in all cases: inhibition of tumour cell growth, NCI panel, 48 h; in the data active means GI50 below about 0.43 µM; inactive means the rest
CCRF-CEM leukemia = test system: CCRF-CEM leukemia
T-47D breast = test system: T-47D breast
NCI-H226 lung = test system: NCI-H226 lung
IGROV1 ovarian = test system: IGROV1 ovarian
SK-MEL-28 melanoma = test system: SK-MEL-28 melanoma
OVCAR-4 ovarian = test system: OVCAR-4 ovarian
MOLT-4 leukemia = test system: MOLT-4 leukemia
SF-539 CNS = test system: SF-539 CNS
SR leukemia = test system: SR leukemia
HCT-15 colon = test system: HCT-15 colon
EKVX NSCLC = test system: EKVX NSCLC
SF-295 CNS = test system: SF-295 CNS
BT-549 breast = test system: BT-549 breast
PC-3 prostate = test system: PC-3 prostate
U251 CNS = test system: U251 CNS
SN12C renal = test system: SN12C renal
NCI-H522 lung = test system: NCI-H522 lung
MDA-MB-435 = test system: MDA-MB-435
SK-OV-3 ovarian = test system: SK-OV-3 ovarian
SNB-75 CNS = test system: SNB-75 CNS
HOP-92 NSCLC = test system: HOP-92 NSCLC
A549 NSCLC = test system: A549 NSCLC
SF-268 CNS = test system: SF-268 CNS
MCF7 breast = test system: MCF7 breast
TK-10 renal = test system: TK-10 renal
HT29 colon = test system: HT29 colon
A498 renal = test system: A498 renal
SNB-19 CNS = test system: SNB-19 CNS
K-562 leukemia = test system: K-562 leukemia
HCC-2998 colon = test system: HCC-2998 colon
UO-31 renal = test system: UO-31 renal
HCT-116 colon = test system: HCT-116 colon
MDA-MB-231 breast = test system: MDA-MB-231 breast
HL-60(TB) leukemia = test system: HL-60(TB) leukemia
OVCAR-3 ovarian = test system: OVCAR-3 ovarian
M14 melanoma = test system: M14 melanoma
LOX IMVI melanoma = test system: LOX IMVI melanoma
SK-MEL-5 melanoma = test system: SK-MEL-5 melanoma
UACC-257 melanoma = test system: UACC-257 melanoma
MALME-3M melanoma = test system: MALME-3M melanoma
DU-145 prostate = test system: DU-145 prostate
HOP-62 NSCLC = test system: HOP-62 NSCLC
CAKI-1 renal = test system: CAKI-1 renal
SK-MEL-2 melanoma = test system: SK-MEL-2 melanoma
OVCAR-8 ovarian = test system: OVCAR-8 ovarian
OVCAR-5 ovarian = test system: OVCAR-5 ovarian
SW-620 colon = test system: SW-620 colon
COLO 205 colon = test system: COLO 205 colon
NCI/ADR-RES ovarian = test system: NCI/ADR-RES ovarian
786-0 renal = test system: 786-0 renal
RXF 393 renal = test system: RXF 393 renal
ACHN renal = test system: ACHN renal
NCI-H23 lung = test system: NCI-H23 lung
NCI-H460 lung = test system: NCI-H460 lung
HS 578T breast = test system: HS 578T breast
KM12 colon = test system: KM12 colon
UACC-62 melanoma = test system: UACC-62 melanoma
RPMI-8226 leukemia = test system: RPMI-8226 leukemia

CCOC(=O)c1c(C(F)(F)F)n([O-])c2ccc(OC)cc2[n+]1=O
48.6 µM: TGI (OVCAR-5 ovarian)
22.2 µM: TGI (SN12C renal)
40.2 µM: TGI (ACHN renal)
15.7 µM: TGI (NCI-H460 lung)
17.5 µM: TGI (MOLT-4 leukemia)
35.1 µM: TGI (HCC-2998 colon)
25.4 µM: TGI (LOX IMVI melanoma)
54.4 µM: TGI (SK-MEL-2 melanoma)
51.6 µM: TGI (MDA-MB-231 breast)
16.2 µM: TGI (COLO 205 colon)
21.9 µM: TGI (HOP-62 NSCLC)
49.5 µM: TGI (786-0 renal)
> 100 µM: TGI (SK-MEL-28 melanoma) | TGI (OVCAR-4 ovarian) | TGI (HCT-15 colon) | TGI (PC-3 prostate) | TGI (U251 CNS) | TGI (A549 NSCLC) | TGI (TK-10 renal) | TGI (HT29 colon) | TGI (UO-31 renal) | TGI (UACC-257 melanoma) | TGI (DU-145 prostate) | TGI (OVCAR-8 ovarian) | TGI (SW-620 colon) | TGI (RXF 393 renal) | TGI (KM12 colon)
9.63 µM: TGI (HL-60(TB) leukemia)
24.9 µM: TGI (K-562 leukemia)
3.31 µM: TGI (SK-MEL-5 melanoma)
33.7 µM: TGI (BT-549 breast) | TGI (A498 renal) | TGI (RPMI-8226 leukemia)
76 µM: TGI (MDA-MB-435)
19.9 µM: TGI (CAKI-1 renal)
18.3 µM: TGI (HCT-116 colon)
26.6 µM: TGI (NCI-H23 lung)
8.79 µM: TGI (SF-295 CNS)
6.74 µM: TGI (SR leukemia)
12 µM: TGI (UACC-62 melanoma)
46.2 µM: TGI (HS 578T breast)
72.5 µM: TGI (SF-268 CNS)
60.5 µM: TGI (EKVX NSCLC)
31 µM: TGI (NCI-H522 lung)
8.69 µM: TGI (T-47D breast)
41.7 µM: TGI (CCRF-CEM leukemia)
30.9 µM: TGI (MALME-3M melanoma)
24.6 µM: TGI (M14 melanoma)
40.7 µM: TGI (NCI/ADR-RES ovarian)
36 µM: TGI (NCI-H226 lung)
65 µM: TGI (MCF7 breast)
20.3 µM: TGI (SK-OV-3 ovarian)
44.8 µM: TGI (OVCAR-3 ovarian)
39.8 µM: TGI (SNB-75 CNS)
11.9 µM: TGI (HOP-92 NSCLC)
26.5 µM: TGI (IGROV1 ovarian)
56.6 µM: TGI (SNB-19 CNS)
27 µM: TGI (SF-539 CNS)
inactive: GI50 (CCRF-CEM leukemia) 4.3 µM | GI50 (T-47D breast) 2.6 µM | GI50 (NCI-H226 lung) 4.07 µM | GI50 (IGROV1 ovarian) 4.69 µM | GI50 (SK-MEL-28 melanoma) 20.3 µM | GI50 (OVCAR-4 ovarian) 5.39 µM | GI50 (MOLT-4 leukemia) 4 µM | GI50 (SF-539 CNS) 7.97 µM | GI50 (SR leukemia) 2.37 µM | GI50 (HCT-15 colon) 3.88 µM | GI50 (EKVX NSCLC) 3.67 µM | GI50 (SF-295 CNS) 2.61 µM | GI50 (BT-549 breast) 4.29 µM | GI50 (PC-3 prostate) 2.99 µM | GI50 (U251 CNS) 4.31 µM | GI50 (SN12C renal) 2.84 µM | GI50 (NCI-H522 lung) 6.52 µM | GI50 (MDA-MB-435) 4.47 µM | GI50 (SK-OV-3 ovarian) 3.71 µM | GI50 (SNB-75 CNS) 3.55 µM | GI50 (HOP-92 NSCLC) 2.51 µM | GI50 (A549 NSCLC) 8.57 µM | GI50 (SF-268 CNS) 4.65 µM | GI50 (MCF7 breast) 4.38 µM | GI50 (TK-10 renal) 9.68 µM | GI50 (HT29 colon) 7.89 µM | GI50 (A498 renal) 11.3 µM | GI50 (SNB-19 CNS) 3.77 µM | GI50 (K-562 leukemia) 3.76 µM | GI50 (HCC-2998 colon) 4.77 µM | GI50 (UO-31 renal) 6.68 µM | GI50 (HCT-116 colon) 4.13 µM | GI50 (MDA-MB-231 breast) 5.38 µM | GI50 (HL-60(TB) leukemia) 3.01 µM | GI50 (OVCAR-3 ovarian) 4.31 µM | GI50 (M14 melanoma) 3.75 µM | GI50 (LOX IMVI melanoma) 5.22 µM | GI50 (SK-MEL-5 melanoma) 1.7 µM | GI50 (UACC-257 melanoma) 3.69 µM | GI50 (MALME-3M melanoma) 2.83 µM | GI50 (DU-145 prostate) 5.15 µM | GI50 (HOP-62 NSCLC) 3.89 µM | GI50 (CAKI-1 renal) 3.46 µM | GI50 (SK-MEL-2 melanoma) 19.2 µM | GI50 (OVCAR-8 ovarian) 5.12 µM | GI50 (OVCAR-5 ovarian) 5.49 µM | GI50 (SW-620 colon) 5.79 µM | GI50 (COLO 205 colon) 4.13 µM | GI50 (NCI/ADR-RES ovarian) 3.72 µM | GI50 (786-0 renal) 6.39 µM | GI50 (RXF 393 renal) 23.8 µM | GI50 (ACHN renal) 4.09 µM | GI50 (NCI-H23 lung) 3.68 µM | GI50 (NCI-H460 lung) 3.8 µM | GI50 (HS 578T breast) 4.07 µM | GI50 (KM12 colon) 7.99 µM | GI50 (UACC-62 melanoma) 2.69 µM | GI50 (RPMI-8226 leukemia) 3.49 µM

Cc1[nH]c(=O)[nH]c(=O)c1CO
> 100 µM: TGI (CCRF-CEM leukemia) | TGI (T-47D breast) | TGI (IGROV1 ovarian) | TGI (SK-MEL-28 melanoma) | TGI (MOLT-4 leukemia) | TGI (SF-539 CNS) | TGI (SR leukemia) | TGI (HCT-15 colon) | TGI (BT-549 breast) | TGI (PC-3 prostate) | TGI (U251 CNS) | TGI (SN12C renal) | TGI (NCI-H522 lung) | TGI (MDA-MB-435) | TGI (SK-OV-3 ovarian) | TGI (SNB-75 CNS) | TGI (HOP-92 NSCLC) | TGI (A549 NSCLC) | TGI (SF-268 CNS) | TGI (MCF7 breast) | TGI (TK-10 renal) | TGI (HT29 colon) | TGI (A498 renal) | TGI (SNB-19 CNS) | TGI (K-562 leukemia) | TGI (HCC-2998 colon) | TGI (UO-31 renal) | TGI (HCT-116 colon) | TGI (MDA-MB-231 breast) | TGI (HL-60(TB) leukemia) | TGI (OVCAR-3 ovarian) | TGI (M14 melanoma) | TGI (LOX IMVI melanoma) | TGI (SK-MEL-5 melanoma) | TGI (UACC-257 melanoma) | TGI (MALME-3M melanoma) | TGI (DU-145 prostate) | TGI (HOP-62 NSCLC) | TGI (CAKI-1 renal) | TGI (SK-MEL-2 melanoma) | TGI (OVCAR-8 ovarian) | TGI (OVCAR-5 ovarian) | TGI (SW-620 colon) | TGI (COLO 205 colon) | TGI (NCI/ADR-RES ovarian) | TGI (786-0 renal) | TGI (RXF 393 renal) | TGI (ACHN renal) | TGI (NCI-H23 lung) | TGI (NCI-H460 lung) | TGI (HS 578T breast) | TGI (KM12 colon) | TGI (UACC-62 melanoma)
inactive: GI50 (CCRF-CEM leukemia) > 100 µM | GI50 (T-47D breast) > 100 µM | GI50 (IGROV1 ovarian) > 100 µM | GI50 (SK-MEL-28 melanoma) > 100 µM | GI50 (MOLT-4 leukemia) > 100 µM | GI50 (SF-539 CNS) > 100 µM | GI50 (SR leukemia) > 100 µM | GI50 (HCT-15 colon) > 100 µM | GI50 (BT-549 breast) > 100 µM | GI50 (PC-3 prostate) > 100 µM | GI50 (U251 CNS) > 100 µM | GI50 (SN12C renal) > 100 µM | GI50 (NCI-H522 lung) > 100 µM | GI50 (MDA-MB-435) > 100 µM | GI50 (SK-OV-3 ovarian) > 100 µM | GI50 (SNB-75 CNS) > 100 µM | GI50 (HOP-92 NSCLC) > 100 µM | GI50 (A549 NSCLC) > 100 µM | GI50 (SF-268 CNS) > 100 µM | GI50 (MCF7 breast) > 100 µM | GI50 (TK-10 renal) > 100 µM | GI50 (HT29 colon) > 100 µM | GI50 (A498 renal) > 100 µM | GI50 (SNB-19 CNS) > 100 µM | GI50 (K-562 leukemia) > 100 µM | GI50 (HCC-2998 colon) > 100 µM | GI50 (UO-31 renal) > 100 µM | GI50 (HCT-116 colon) > 100 µM | GI50 (MDA-MB-231 breast) > 100 µM | GI50 (HL-60(TB) leukemia) > 100 µM | GI50 (OVCAR-3 ovarian) > 100 µM | GI50 (M14 melanoma) > 100 µM | GI50 (LOX IMVI melanoma) > 100 µM | GI50 (SK-MEL-5 melanoma) > 100 µM | GI50 (UACC-257 melanoma) > 100 µM | GI50 (MALME-3M melanoma) > 100 µM | GI50 (DU-145 prostate) > 100 µM | GI50 (HOP-62 NSCLC) > 100 µM | GI50 (CAKI-1 renal) > 100 µM | GI50 (SK-MEL-2 melanoma) > 100 µM | GI50 (OVCAR-8 ovarian) > 100 µM | GI50 (OVCAR-5 ovarian) > 100 µM | GI50 (SW-620 colon) > 100 µM | GI50 (COLO 205 colon) > 100 µM | GI50 (NCI/ADR-RES ovarian) > 100 µM | GI50 (786-0 renal) > 100 µM | GI50 (RXF 393 renal) > 100 µM | GI50 (ACHN renal) > 100 µM | GI50 (NCI-H23 lung) > 100 µM | GI50 (NCI-H460 lung) > 100 µM | GI50 (HS 578T breast) > 100 µM | GI50 (KM12 colon) > 100 µM | GI50 (UACC-62 melanoma) > 100 µM
